The text below walks through data of patent US20120004282A1, “RNA Interference Mediated Inhibition of the Intercellular Adhesion Molecule 1 (ICAM-1) Gene Expression Using Short Interfering Nucleic Acid (siNA)” (Merck Sharp & Dohme Corp,, priority 2009, published 2012).

[invAb] = inverted (deoxy)abasic end cap; m = 2'-O-methyl; r = 2'-OH (RNA); f = 2'-fluoro

This data set relates to ICAM-1 mRNA. Description: ICAM-1 mRNA knock-down in transfected Calu-1 cells (Taqman RT-PCR). It counts as cell-based, human. The conditions noted are these: Calu-1 cells, 10 nM siNA, 24 hrs post-transfection, mean ± S.D., relative to non-targeting control.
For “48709-DC: siNA duplex, ICAM-1 target site 988 (m); sense B GGAccuuAAcAGucuAcAA TTB; antisense UUGuAGAcuGuuAAGGuccUU (sense GGACCUUAACAGUCUACAATT; antisense UUGUAGACUGUUAAGGUCCUU; sense: DNA at AGT, 2'-fluoro at CU, [invAb] at 5' end, 3' end, backbone not given here; antisense: sugars from the 5' end rrrfmmmffmffmmmmfffmm, backbone not given here)”, the “% KD Human” value was found to be 32 ± 14%.
The same measure for “48721-DC: siNA duplex, ICAM-1 target site 523 (h); sense B GuuGcuccuGccuGGGAAc TTB; antisense GUUcccAGGcAGGAGcAAcUU (sense GUUGCUCCUGCCUGGGAACTT; antisense GUUCCCAGGCAGGAGCAACUU; sense: DNA at AGT, 2'-fluoro at CU, [invAb] at 5' end, 3' end, backbone not given here; antisense: sugars from the 5' end rrrfffmmmfmmmmmfmmfmm, backbone not given here)”: 56 ± 16%; for “48703-DC: siNA duplex, ICAM-1 target site 394 (m); sense B ccGuGuAuucGuuuccGGA TTB; antisense UCCGGAAAcGAAuAcAcGGUU (sense CCGUGUAUUCGUUUCCGGATT; antisense UCCGGAAACGAAUACACGGUU; sense: DNA at AGT, 2'-fluoro at CU, [invAb] at 5' end, 3' end, backbone not given here; antisense: sugars from the 5' end rrrmmmmmfmmmfmfmfmmmm, backbone not given here)”: 30 ± 15%.
